Results taken from patent US9751874B2, “Hydroxy containing FXR (NR1H4) modulating compounds” (Gilead Sciences, Inc., priority 2014, dated 2017).

Key:
[1] = molecular target: T1, human FXR alpha ligand binding domain (Homo sapiens, UniProt Q96RI1); experiment: FRET activity assay (ligand mediated cofactor peptide interaction, LANCE); type: biochemical; settings: GST-FXR-LBD / biotinylated SRC-1 peptide (676-700), read-out: F EC50
T1 construct: made in house; host or cells: E. coli BL21(DE3), vector pDEST15
T1 sequence (Q96RI1 187-472 isoform Q96RI1-2): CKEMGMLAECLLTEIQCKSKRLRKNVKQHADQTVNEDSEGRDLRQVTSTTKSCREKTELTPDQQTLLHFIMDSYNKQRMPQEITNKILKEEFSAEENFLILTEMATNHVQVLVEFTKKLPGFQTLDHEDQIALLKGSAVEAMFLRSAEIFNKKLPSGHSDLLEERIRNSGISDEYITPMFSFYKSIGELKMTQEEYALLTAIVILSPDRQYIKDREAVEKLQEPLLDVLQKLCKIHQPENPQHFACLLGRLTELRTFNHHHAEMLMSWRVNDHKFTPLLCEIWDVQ
Procedure: Determination of a ligand mediated cofactor peptide interaction to quantify ligand binding to the nuclear receptor FXR was performed as follows: Preparation of human FXR alpha ligand binding domain: The human FXRalpha LBD was expressed in E. coli strain BL21(DE3) as an N-terminally GST tagged fusion protein. The DNA encoding the FXR ligand binding domain was cloned into vector pDEST15 (Invitrogen). Expression was under control of an IPTG inducible T7 promoter. The amino acid boundaries of the ligand binding domain were amino acids 187-472 of Database entry NM_005123 (RefSeq). Expression and purification of the FXR-LBD: An overnight preculture of a transformed E. coli strain was diluted 1:20 in LB-Ampicillin medium and grown at 30° C. to an optical density of OD600=0.4-0.6. Gene expression was then induced by addition of 0.5 mM IPTG. Cells were incubated an additional 6 h at 30° C., 180 rpm. Cells were collected by centrifugation (7000×g, 7 min, rt). Per liter of original cell culture, cells were resuspended in 10 mL lysis buffer (50 mM Glucose, 50 mM Tris pH 7.9, 1 mM EDTA and 4 mg/mL lysozyme) and left on ice for 30 min. Cells were then subjected to sonication and cell debris removed via centrifugation (22000×g, 30 min, 4° C.). Per 10 mL of supernatant 0.5 mL prewashed Glutathione 4B sepharose slurry (Qiagen) was added and the suspension kept slowly rotating for 1 h at 4° C. Glutathione 4B sepharose beads were pelleted by centrifugation (2000×g, 15 sec, 4° C.) and washed twice in wash buffer (25 mM Tris, 50 mM KCl, 4 mM MgCl2 and 1M NaCl). The pellet was resuspended in 3 mL elution buffer per liter of original culture (elution buffer: 20 mM Tris, 60 mM KCl, 5 mM MgCl2 and 80 mM glutathione added immediately prior to use as powder). The suspension was left rotating for 15 min at 4° C., the beads pelleted and eluted again with half the volume of elution buffer than the first time. The eluates were pooled and dialysed overnight in 20 mM Hepes buffer (pH 7.5) containing 60 mM KCl, 5 mM MgCl2 as well as 1 mM dithiothreitol and 10% (v/v) glycerol. The protein was analysed by SDS-Page.
The method measures the ability of putative ligands to modulate the interaction between the purified bacterial expressed FXR ligand binding domain (LBD) and a synthetic biotinylated peptide based on residues 676-700 of SRC-1 (LCD2, 676-700). The sequence of the peptide used was B—[…]—COOH where the N-terminus was biotinylated (B). The ligand binding domain (LBD) of FXR was expressed as fusion protein with GST in BL-21 cells using the vector pDEST15. Cells were lysed by sonication, and the fusion proteins purified over glutathione sepharose (Pharmacia) according to the manufacturers instructions. For screening of compounds for their influence on the FXR-peptide interaction, the Perkin Elmer LANCE technology was applied. This method relies on the binding dependent energy transfer from a donor to an acceptor fluorophor attached to the binding partner of interest. For ease of handling and reduction of background from compound fluorescence LANCE technology makes use of generic fluorophore labels and time resolved detection Assays were done in a final volume of 25 μL in a 384 well plate, in a Tris-based buffer (20 mM Tris-HCl pH 7.5; 60 mM KCl, 5 mM MgCl2; 35 ng/μL BSA), containing 20-60 ng/well recombinantly expressed FXR-LBD fused to GST, 200-600 nM N-terminally biotinylated peptide, representing SRC1 aminoacids 676-700, 200 ng/well Streptavidin-xIAPC conjugate (Prozyme) and 6-10 ng/well Eu W1024-antiGST (Perkin Elmer). DMSO content of the samples was kept at 1%. After generation of the assay mix and diluting the potentially FXR modulating ligands, the assay was equilibrated for 1 h in the dark at rt in FIA-plates black 384 well (Greiner). The LANCE signal was detected by a Perkin Elmer VICTOR2VTM Multilabel Counter. The results were visualized by plotting the ratio between the emitted light at 665 and 615 nm. […]

[2] = molecular target: T2, FXR ligand binding domain (Homo sapiens, UniProt Q96RI1); experiment: Mammalian One Hybrid (M1H) assay, Gal4 promoter driven transactivation in HEK293 cells; type: cell-based; settings: Gal4-FXR-LBD luciferase reporter, 16 h
T2 construct: expressed in transfected cells; host or cells: HEK293 cells, transiently transfected with pCMV-BD-FXR-LBD, pFR-Luc and pRL-CMV
T2 sequence (Q96RI1 187-472 isoform Q96RI1-2): T1 sequence (Q96RI1 187-472 isoform Q96RI1-2)
Procedure: Mammalian One Hybrid (M1H) Assay
Determination of a ligand mediated Gal4 promoter driven transactivation to quantify ligand binding mediated activation of FXR was performed as follows: The cDNA part encoding the FXR ligand binding domain was cloned into vector pCMV-BD (Stratagene) as a fusion to the yeast GAL4 DNA binding domain under the control of the CMV promoter. The amino acid boundaries of the ligand binding domain were amino acids 187-472 of Database entry NM_005123 (RefSeq). The plasmid pFR-Luc (Stratagene) was used as the reporter plasmid, containing a synthetic promoter with five tandem repeats of the yeast GAL4 binding sites, driving the expression of the Photinus pyralis (American firefly) luciferase gene as the reporter gene. In order to improve experimental accuracy the plasmid pRL-CMV (Promega) was cotransfected. pRL-CMV contains the constitutive CMV promoter, controlling the expression of the Renilla reniformis luciferase. All Gal4 reporter gene assays were done in HEK293 cells (obtained from DSMZ, Braunschweig, Germany) grown in MEM with L-Glutamine and Earle's BSS supplemented with 10% fetal bovine serum, 0.1 mM nonessential amino acids, 1 mM sodium pyruvate, and 100 units Penicilin/[…] per mL at 37° C. in 5% CO2. Medium and supplements were obtained from Invitrogen. For the assay, […] cells were plated per well in 96 well plates in 100 μL per well MEM without Phenol Red and L-Glutamine and with Earle's BSS supplemented with 10% charcoal/dextran treated FBS (HyClone, South Logan, Utah), 0.1 mM nonessential amino acids, 2 mM glutamine, 1 mM sodium pyruvate, and 100 units Penicilin/[…] per mL, incubated at 37° C. in 5% CO2. The following day the cells were >90% confluence. Medium was removed and cells were transiently transfected using 20 μL per well of a OptiMEM—polyethylene-imine-based transfection-reagent (OptiMEM, Invitrogen; Polyethyleneimine, Aldrich Cat No. 40,827-7) including the three plasmids described above. MEM with the same composition as used for plating cells was added 2-4 h after addition of transfection mixture. Then compound stocks, prediluted in MEM were added (final vehicle concentration not exceeding 0.1%). Cells were incubated for additional 16 h before firefly and renilla luciferase activities were measured sequentially in the same cell extract using a Dual-Light-Luciferase-Assay system (Dyer et al., Anal. Biochem. 2000, 282, 158-161). All experiments were done in triplicates.

| Compound | EC50 [1] | EC50 [2] |
| --- | --- | --- |
| O=C(O)c1cc(F)c2nc([C@]3(O)[C@@H]4CC[C@H]3C[C@H](OCc3c(C5CC5)cnn3-c3c(Cl)cccc3Cl)C4)sc2c1 [Example 47, 2-((1R,3s,5S,8r)-3-((4-Cyclopropyl-1-(2,6-dichlorophenyl)-1H-pyrazol-5-yl)methoxy)-8-hydroxybicyclo[3.2.1]octan-8-yl)-4-fluorobenzo[d]thiazole-6-carboxylic acid] | 1.1 nM | 7.9 nM |
| O=C(O)c1cccc2nc([C@]3(O)CC[C@@H](OCc4c(-c5c(Cl)cccc5Cl)noc4C4CC4)CC3)sc12 [Example 26, 2-((1s,4s)-4-((5-Cyclopropyl-3-(2,6-dichlorophenyl)isoxazol-4-yl)methoxy)-1-hydroxycyclohexyl)benzo[d]thiazole-7-carboxylic acid] | 17 nM | 210 nM |
| O=C(O)c1ccc2nc(C3(O)CC4(CC(OCc5c(-c6c(Cl)cccc6Cl)noc5C5CC5)C4)C3)sc2c1 (single isomer, unassigned) [Example 11-4b, 2-(6-((5-Cyclopropyl-3-(2,6-dichlorophenyl)isoxazol-4-yl)methoxy)-2-hydroxyspiro[3.3]heptan-2-yl)benzo[d]thiazole-6-carboxylic acid] | 120 nM | 380 nM |
| O=Cc1nsc2ccc([C@]3(O)CC[C@@H](OCc4c(-c5c(Cl)cccc5Cl)noc4C4CC4)CC3)cc12 [Example 32, 5-((1s,4s)-4-((5-Cyclopropyl-3-(2,6-dichlorophenyl)isoxazol-4-yl)methoxy)-1-hydroxycyclohexyl)benzo[d]isothiazole-3-carbaldehyde] | 190 nM | 400 nM |
| O[C@]1(c2nc3c(F)cc(-c4nnn[nH]4)cc3s2)CC[C@H](OCc2c(-c3c(Cl)cccc3Cl)noc2C2CC2)CC1 [Example 21, (1s,4s)-4-((5-Cyclopropyl-3-(2,6-dichlorophenyl)isoxazol-4-yl)methoxy)-1-(4-fluoro-6-(1H-tetrazol-5-yl)benzo[d]thiazol-2-yl)cyclohexanol] | 64 nM | 1700 nM |

The remaining lines, values ahead:

| EC50 [1] | EC50 [2] | Compound |
| --- | --- | --- |
| 36 nM | 38 nM | CC1(C)C[C@](O)(c2nc3c(F)cc(C(=O)O)cc3s2)CC[C@H]1OCc1c(-c2c(Cl)cccc2Cl)noc1C1CC1 (racemic) [Example 11-33, 2-((1S,4R)-4-((5-Cyclopropyl-3-(2,6-dichlorophenyl)isoxazol-4-yl)methoxy)-1-hydroxy-3,3-dimethylcyclohexyl)-4-fluorobenzo[d]thiazole-6-carboxylic acid] |
| 420 nM | 290 nM | O=C(O)c1cc(F)c2nc([C@]3(O)[C@@H]4CC[C@H]3CC(OCc3c(-c5c(Cl)cccc5Cl)noc3C3CC3)(C(F)F)C4)sc2c1 (single isomer, unassigned) [Example 11-40] |
| 7.8 nM | 14 nM | O=C(O)c1ccc([C@]2(O)[C@@H]3CC[C@H]2C[C@H](OCc2c(-c4c(Cl)cccc4Cl)noc2C2CC2)C3)c(F)c1 [Example 11-24] |
| 20 nM | 36 nM | Cn1cc(C(=O)O)c2ccc([C@]3(O)CC[C@@H](OCc4c(-c5c(Cl)cccc5Cl)noc4C4CC4)CC3)cc21 [Example 11-42, 6-((1s,4s)-4-((5-Cyclopropyl-3-(2,6-dichlorophenyl)isoxazol-4-yl)methoxy)-1-hydroxycyclohexyl)-1-methyl-1H-indole-3-carboxylic acid] |
| 230 nM | 270 nM | O=C(O)c1ccc2nc([C@]3(O)CC[C@@H](OCc4c(-c5ccccc5OC(F)(F)F)noc4C4CC4)CC3)sc2c1 [Example 11-14, 2-((1s,4s)-4-((5-Cyclopropyl-3-(2-(trifluoromethoxy)phenyl)isoxazol-4-yl)methoxy)-1-hydroxycyclohexyl)benzo[d]thiazole-6-carboxylic acid] |
| 8000 nM | > 3000 nM | O=C(O)Cc1ccc([C@]2(O)CC[C@@H](OCc3c(-c4c(Cl)cccc4Cl)noc3C3CC3)CC2)c(F)c1 [Example 11-8, 2-(4-((1s,4s)-4-((5-Cyclopropyl-3-(2,6-dichlorophenyl)isoxazol-4-yl)methoxy)-1-hydroxycyclohexyl)-3-fluorophenyl)acetic acid] |
| 41 nM | 18 nM | O=C(O)c1ccc2nc([C@]3(O)[C@@H]4CC[C@H]3C[C@@H](OCc3c(-c5c(Cl)cccc5Cl)noc3C3CC3)C4)sc2c1 [Example 11-23, 2-((1R,3r,5S,8r)-3-((5-Cyclopropyl-3-(2,6-dichlorophenyl)isoxazol-4-yl)methoxy)-8-hydroxybicyclo[3.2.1]octan-8-yl)benzo[d]thiazole-6-carboxylic acid] |
| 360 nM | 430 nM | Cc1cccc(C)c1-c1noc(C2CC2)c1CO[C@H]1CC[C@](O)(c2nc3ccc(C(=O)O)cc3s2)CC1 [Example 11-12, 2-((1s,4s)-4-((5-Cyclopropyl-3-(2,6-dimethylphenyl)isoxazol-4-yl)methoxy)-1-hydroxycyclohexyl)benzo[d]thiazole-6-carboxylic acid] |
